Results from ChEMBL document CHEMBL3991601, “The target landscape of clinical kinase drugs” (Science, 2017).
Calls of active or inactive are those of the source.

Assays:
[1] = target: T1, Receptor-type tyrosine-protein kinase FLT3 (Homo sapiens, UniProt P36888)
T1 sequence (P36888 whole entry): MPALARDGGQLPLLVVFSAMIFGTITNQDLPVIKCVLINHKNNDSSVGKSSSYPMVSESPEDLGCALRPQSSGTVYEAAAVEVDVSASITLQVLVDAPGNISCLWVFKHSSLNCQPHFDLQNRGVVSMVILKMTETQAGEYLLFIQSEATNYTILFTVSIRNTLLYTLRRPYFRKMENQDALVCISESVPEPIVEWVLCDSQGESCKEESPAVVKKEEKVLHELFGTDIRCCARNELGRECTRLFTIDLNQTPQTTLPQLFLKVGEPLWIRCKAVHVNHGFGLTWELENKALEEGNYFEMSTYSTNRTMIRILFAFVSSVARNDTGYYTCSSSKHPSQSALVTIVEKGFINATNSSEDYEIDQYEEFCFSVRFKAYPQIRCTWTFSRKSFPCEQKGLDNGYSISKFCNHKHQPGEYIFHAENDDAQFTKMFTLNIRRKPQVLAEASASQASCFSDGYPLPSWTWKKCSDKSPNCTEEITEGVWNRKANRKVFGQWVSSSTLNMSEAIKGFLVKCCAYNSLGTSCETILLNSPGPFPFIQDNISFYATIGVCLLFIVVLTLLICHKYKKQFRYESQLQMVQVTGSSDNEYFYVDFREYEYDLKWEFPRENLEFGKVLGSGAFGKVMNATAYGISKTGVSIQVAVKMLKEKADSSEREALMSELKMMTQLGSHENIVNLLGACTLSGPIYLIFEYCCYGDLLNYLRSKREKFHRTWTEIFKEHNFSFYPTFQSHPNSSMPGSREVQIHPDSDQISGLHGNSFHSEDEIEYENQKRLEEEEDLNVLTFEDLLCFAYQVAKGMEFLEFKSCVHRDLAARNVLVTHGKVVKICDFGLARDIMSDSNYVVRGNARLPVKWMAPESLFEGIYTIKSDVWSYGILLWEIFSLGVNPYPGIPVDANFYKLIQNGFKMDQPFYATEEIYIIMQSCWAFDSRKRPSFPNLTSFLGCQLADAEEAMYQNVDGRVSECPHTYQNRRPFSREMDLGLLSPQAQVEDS

[2] = target: T2, Cysteine--tRNA ligase, cytoplasmic (Homo sapiens, UniProt P49589)
T2 sequence (P49589 whole entry): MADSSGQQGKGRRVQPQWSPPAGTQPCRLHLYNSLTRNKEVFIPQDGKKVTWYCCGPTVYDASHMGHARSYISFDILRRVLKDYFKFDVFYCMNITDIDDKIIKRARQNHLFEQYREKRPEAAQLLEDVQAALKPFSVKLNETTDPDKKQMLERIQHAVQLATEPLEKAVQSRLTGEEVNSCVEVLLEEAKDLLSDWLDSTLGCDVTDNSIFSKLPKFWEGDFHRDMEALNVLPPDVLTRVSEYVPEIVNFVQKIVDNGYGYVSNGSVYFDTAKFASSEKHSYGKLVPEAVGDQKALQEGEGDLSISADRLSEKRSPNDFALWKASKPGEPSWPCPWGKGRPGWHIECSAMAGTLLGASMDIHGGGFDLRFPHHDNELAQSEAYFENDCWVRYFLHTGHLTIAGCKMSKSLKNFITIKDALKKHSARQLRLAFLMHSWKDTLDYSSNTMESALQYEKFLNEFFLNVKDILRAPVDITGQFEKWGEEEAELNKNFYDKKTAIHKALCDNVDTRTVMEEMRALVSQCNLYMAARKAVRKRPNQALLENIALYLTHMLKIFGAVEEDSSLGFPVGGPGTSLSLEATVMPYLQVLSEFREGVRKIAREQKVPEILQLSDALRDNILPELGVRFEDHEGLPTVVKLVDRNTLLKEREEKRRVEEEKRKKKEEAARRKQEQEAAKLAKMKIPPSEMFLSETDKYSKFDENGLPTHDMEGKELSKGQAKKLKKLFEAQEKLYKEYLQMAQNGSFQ

[3] = target: Serine/threonine-protein kinase pim-1 (Homo sapiens, UniProt P11309)
[4] = target: Ribosomal protein S6 kinase alpha-4 (Homo sapiens, UniProt O75676)
[5] = target: T3, ADP/ATP translocase 3 (Homo sapiens, UniProt P12236)
T3 sequence (P12236 whole entry): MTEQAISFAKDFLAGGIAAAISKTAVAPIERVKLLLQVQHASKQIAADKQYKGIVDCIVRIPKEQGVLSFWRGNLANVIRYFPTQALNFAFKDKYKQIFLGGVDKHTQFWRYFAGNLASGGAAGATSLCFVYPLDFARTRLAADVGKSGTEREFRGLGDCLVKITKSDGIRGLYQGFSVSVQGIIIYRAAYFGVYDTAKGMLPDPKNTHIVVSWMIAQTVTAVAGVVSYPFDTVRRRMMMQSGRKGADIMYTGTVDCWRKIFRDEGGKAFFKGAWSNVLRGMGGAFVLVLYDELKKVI
Further: in the data inactive means no Kd found up to 30 µM.

Ribosomal protein S6 kinase alpha-4, sequence (O75676 whole entry): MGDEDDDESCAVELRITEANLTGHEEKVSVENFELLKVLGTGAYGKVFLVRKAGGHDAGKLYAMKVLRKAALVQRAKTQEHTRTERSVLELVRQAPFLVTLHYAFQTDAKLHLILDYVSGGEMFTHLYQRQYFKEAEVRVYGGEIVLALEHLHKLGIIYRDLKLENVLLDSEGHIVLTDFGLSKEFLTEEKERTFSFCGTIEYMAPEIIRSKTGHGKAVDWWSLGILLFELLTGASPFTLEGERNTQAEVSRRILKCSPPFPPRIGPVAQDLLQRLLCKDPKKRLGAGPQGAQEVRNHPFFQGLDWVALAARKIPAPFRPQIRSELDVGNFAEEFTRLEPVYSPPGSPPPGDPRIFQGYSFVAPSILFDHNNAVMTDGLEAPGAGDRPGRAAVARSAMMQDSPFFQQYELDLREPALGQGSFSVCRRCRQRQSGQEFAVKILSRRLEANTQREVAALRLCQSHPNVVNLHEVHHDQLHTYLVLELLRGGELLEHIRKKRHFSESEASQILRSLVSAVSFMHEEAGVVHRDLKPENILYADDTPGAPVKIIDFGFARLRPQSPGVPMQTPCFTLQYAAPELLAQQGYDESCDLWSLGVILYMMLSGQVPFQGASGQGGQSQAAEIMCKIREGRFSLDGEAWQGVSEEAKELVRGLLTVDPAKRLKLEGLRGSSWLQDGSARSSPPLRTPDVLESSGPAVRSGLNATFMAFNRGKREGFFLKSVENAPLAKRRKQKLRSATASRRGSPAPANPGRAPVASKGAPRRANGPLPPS
Serine/threonine-protein kinase pim-1, sequence (P11309 whole entry): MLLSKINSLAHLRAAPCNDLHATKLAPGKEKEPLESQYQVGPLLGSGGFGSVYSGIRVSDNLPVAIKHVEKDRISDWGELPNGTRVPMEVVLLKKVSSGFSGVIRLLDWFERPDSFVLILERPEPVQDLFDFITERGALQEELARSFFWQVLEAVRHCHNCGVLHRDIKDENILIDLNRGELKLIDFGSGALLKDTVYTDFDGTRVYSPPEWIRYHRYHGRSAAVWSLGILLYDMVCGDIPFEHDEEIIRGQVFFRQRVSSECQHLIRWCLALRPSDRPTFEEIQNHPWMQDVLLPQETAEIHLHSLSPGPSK

Kd [1]	Kd [2]	Kd [3]	Kd [4]	Kd [5]	SMILES
> 30 µM (inactive)	> 30 µM (inactive)	> 30 µM (inactive)	> 30 µM (inactive)	> 30 µM (inactive)	CO[C@H]1C[C@@H]2CC[C@@H](C)[C@@](O)(O2)C(=O)C(=O)N2CCCC[C@H]2C(=O)O[C@H]([C@H](C)C[C@@H]2CC[C@@H](O)[C@H](OC)C2)CC(=O)[C@H](C)/C=C(\C)[C@@H](O)[C@@H](OC)C(=O)[C@H](C)C[C@H](C)/C=C/C=C/C=C/1C [SIROLIMUS]
> 30 µM (inactive)	> 30 µM (inactive)	> 30 µM (inactive)	> 30 µM (inactive)	> 30 µM (inactive)	CO[C@H]1C[C@@H]2CC[C@@H](C)[C@@](O)(O2)C(=O)C(=O)N2CCCC[C@H]2C(=O)O[C@H]([C@H](C)C[C@@H]2CC[C@@H](OC(=O)C(C)(CO)CO)[C@H](OC)C2)CC(=O)[C@H](C)/C=C(\C)[C@@H](O)[C@@H](OC)C(=O)[C@H](C)C[C@H](C)/C=C/C=C/C=C/1C [TEMSIROLIMUS]
> 30 µM (inactive)	> 30 µM (inactive)	> 30 µM (inactive)	> 30 µM (inactive)	> 30 µM (inactive)	COc1cc2c(Nc3ccc(Cl)c(Cl)c3F)ncnc2cc1OC[C@@H]1C[C@@H]2CN(C)C[C@@H]2C1 [TESEVATINIB]
> 30 µM (inactive)	> 30 µM (inactive)	> 30 µM (inactive)	> 30 µM (inactive)	> 30 µM (inactive)	O=C(Cc1ccc(-c2ccc(OCCN3CCOCC3)cc2)cn1)NCc1ccccc1 [TIRBANIBULIN]
> 30 µM (inactive)	> 30 µM (inactive)	> 30 µM (inactive)	> 30 µM (inactive)	> 30 µM (inactive)	O=C1NC(=O)[C@@H](c2cn3c4c(cccc24)CCC3)[C@@H]1c1c[nH]c2ccccc12 [TIVANTINIB]
> 30 µM (inactive)	> 30 µM (inactive)	> 30 µM (inactive)	> 30 µM (inactive)	> 30 µM (inactive)	C[C@@H](NC(=O)c1ncnc(N)c1Cl)c1ncc(C(=O)Nc2cc(C(F)(F)F)c(Cl)cn2)s1 [TOVORAFENIB]
0.005 µM (active)	> 30 µM (inactive)	> 30 µM (inactive)	> 30 µM (inactive)	> 30 µM (inactive)	CC(C)c1cc(CNc2nc(Nc3cc(C4CC4)[nH]n3)cc(N3CCN(C)CC3)n2)on1 [XL-228]
0.418 µM	> 30 µM (inactive)	> 30 µM (inactive)	> 30 µM (inactive)	> 30 µM (inactive)	CN1C/C=C/CCOc2cccc(c2)-c2ccnc(n2)Nc2cccc(c2)C1 [ZOTIRACICLIB]

SMILES	Kd [1]	Kd [2]	Kd [3]	Kd [4]	Kd [5]
Cc1cc(Nc2ncnc3ccc(NC4=NC(C)(C)CO4)cc23)ccc1Oc1ccn2ncnc2c1 [TUCATINIB]	> 30 µM (inactive)	> 30 µM (inactive)	> 30 µM (inactive)	> 30 µM (inactive)	> 30 µM (inactive)
